Drawing on PubChem BioAssay (NCI), this text covers TGI for seven compounds.

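Step 1: Grow cells in 96-well plates. Step 2: Expose to compound for 48 hours at 5 concentrations. Step 3: Interpolate endpoints linearly; if unreached, use highest concentration. TGI is the concentration that stops growth completely.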

Among the test systems are NCI/ADR-RES ovarian; MDA-MB-435; OVCAR-5 ovarian; SN12C renal; ACHN renal; RXF 393 renal; HS 578T breast; NCI-H522 lung; MOLT-4 leukemia; SF-268 CNS; KM12 colon; SW-620 colon; 786-0 renal; NCI-H226 lung; OVCAR-3 ovarian; SK-OV-3 ovarian; NCI-H460 lung; MALME-3M melanoma.
Assay in all cases: DTP human tumour cell line panel, 48 h

Turning to `Cc1ccc2nc3n[nH]c(N)c3nc2c1`, the TGI in the assay on NCI/ADR-RES ovarian, in the assay on MDA-MB-435, with OVCAR-5 ovarian, in the assay with SN12C renal, with ACHN renal and in the assay with RXF 393 renal was above 100 µM each time. In addition, the TGI in the assay on HS 578T breast, in the assay with NCI-H522 lung, in the assay on MOLT-4 leukemia, with SF-268 CNS, in the assay with KM12 colon and in the assay with SW-620 colon was above 100 µM throughout. The TGI in the assay with 786-0 renal, with NCI-H226 lung, in the assay with OVCAR-3 ovarian, with SK-OV-3 ovarian, with NCI-H460 lung and with MALME-3M melanoma was above 100 µM throughout.

Take `COc1ccc(/C=C2\C[C@H]3[C@@H]4CCC5=C/C(=N/O)CC[C@]5(C)[C@H]4CC[C@]3(C)\C2=N\O)cc1`: the TGI in the assay on NCI/ADR-RES ovarian is above 100 µM; in the assay with MDA-MB-435, above 100 µM; in the assay with OVCAR-5 ovarian it was above 100 µM; in the assay with SN12C renal it was above 100 µM; with ACHN renal, 98.3 µM; with RXF 393 renal, 98.8 µM. The TGI was above 100 µM in the assay with HS 578T breast; 91.7 µM in the assay on NCI-H522 lung; above 100 µM in the assay with MOLT-4 leukemia; above 100 µM in the assay on SF-268 CNS; above 100 µM with KM12 colon; above 100 µM in the assay on SW-620 colon. Besides, the TGI with 786-0 renal was above 100 µM; with NCI-H226 lung it was 95.4 µM; with OVCAR-3 ovarian, above 100 µM; in the assay with SK-OV-3 ovarian it was above 100 µM; in the assay on NCI-H460 lung, above 100 µM; with MALME-3M melanoma, above 100 µM.

For `CCOC(=O)c1cn2c(n1)sc1cc(OC)ccc12`, the TGI in the assay on NCI/ADR-RES ovarian was above 87.3 µM; with MDA-MB-435, 3.48 µM; in the assay on OVCAR-5 ovarian, above 100 µM; in the assay on SN12C renal, above 100 µM; in the assay with ACHN renal it was above 100 µM; with RXF 393 renal, 64.1 µM. Besides, the TGI in the assay with HS 578T breast is 81.2 µM; in the assay on NCI-H522 lung, above 100 µM; in the assay on MOLT-4 leukemia, above 100 µM; in the assay on SF-268 CNS, above 100 µM; with KM12 colon, above 100 µM; with SW-620 colon, above 100 µM. Besides, the TGI is above 100 µM in the assay with 786-0 renal; 98.2 µM in the assay on NCI-H226 lung; above 44.8 µM in the assay on OVCAR-3 ovarian; above 100 µM in the assay on SK-OV-3 ovarian; above 100 µM in the assay on NCI-H460 lung; above 100 µM in the assay on MALME-3M melanoma.

With `Cc1ccc(/C=C2\NC(=S)NC2=O)cc1`, the TGI in the assay with NCI/ADR-RES ovarian, in the assay on MDA-MB-435, in the assay on OVCAR-5 ovarian, in the assay on SN12C renal, in the assay with RXF 393 renal and in the assay with HS 578T breast was above 100 µM each time. Besides, the TGI with NCI-H522 lung, in the assay on MOLT-4 leukemia, in the assay with SF-268 CNS, with KM12 colon, in the assay on SW-620 colon and in the assay on 786-0 renal was above 100 µM throughout. The TGI with NCI-H226 lung, with OVCAR-3 ovarian, with SK-OV-3 ovarian and with MALME-3M melanoma was above 100 µM in each case.

With `O=c1[nH]nc(-c2ccccc2)n1/N=C/c1ccccc1O`, the concentration for total growth inhibition (TGI) in the assay with NCI/ADR-RES ovarian, in the assay with MDA-MB-435, with OVCAR-5 ovarian, in the assay on SN12C renal, in the assay on ACHN renal and in the assay on RXF 393 renal was above 100 µM in each case. The TGI in the assay on HS 578T breast was 96.2 µM; in the assay on NCI-H522 lung, above 100 µM; in the assay with MOLT-4 leukemia it was above 100 µM; in the assay with SF-268 CNS, above 100 µM; in the assay with KM12 colon it was above 100 µM; in the assay on SW-620 colon it was above 100 µM. In addition, the TGI in the assay with 786-0 renal was above 100 µM; in the assay with NCI-H226 lung, above 100 µM; in the assay with OVCAR-3 ovarian it was above 100 µM; in the assay with SK-OV-3 ovarian, 53.9 µM; in the assay on NCI-H460 lung, above 100 µM; in the assay with MALME-3M melanoma, above 100 µM.

For `COC(=O)CCC1(CCC(=O)OC)CCCCCCC(CCC(=O)OC)(CCC(=O)OC)C(=O)C1=O`, the TGI in the assay on NCI/ADR-RES ovarian, with MDA-MB-435, with OVCAR-5 ovarian, in the assay on SN12C renal, with ACHN renal and with RXF 393 renal was above 100 µM each time. For the same compound, the TGI in the assay on HS 578T breast, in the assay on NCI-H522 lung, in the assay with SF-268 CNS, in the assay on KM12 colon, with 786-0 renal and in the assay with NCI-H226 lung was above 100 µM throughout. For the same compound, the TGI with OVCAR-3 ovarian, with SK-OV-3 ovarian, in the assay with NCI-H460 lung and with MALME-3M melanoma was above 100 µM throughout.

For the compound `Nc1ccc(-c2nc3ccc(F)cc3s2)cc1Cl`, the TGI with NCI/ADR-RES ovarian was above 100 µM; with MDA-MB-435 it was above 100 µM; in the assay with OVCAR-5 ovarian it was above 100 µM; in the assay on SN12C renal it was above 100 µM; in the assay on ACHN renal it was above 100 µM; in the assay on RXF 393 renal, above 73.8 µM. For the same compound, the total growth inhibition concentration (TGI) in the assay on HS 578T breast, with NCI-H522 lung, in the assay with MOLT-4 leukemia, in the assay with SF-268 CNS, in the assay with KM12 colon and in the assay on SW-620 colon was above 100 µM throughout. Moreover, the TGI with 786-0 renal, in the assay with NCI-H226 lung, in the assay with OVCAR-3 ovarian, with SK-OV-3 ovarian and in the assay on MALME-3M melanoma was above 100 µM throughout.

By TGI is commonly meant the concentration at which net growth stops. A higher TGI goes with less potent growth arrest.
